# Source: PMC8997995, “Amphiphilic Cell-Penetrating Peptides Containing Natural and Unnatural Amino Acids as Drug Delivery Agents” (Cells, 2022)
# Non-standard residues stand in square brackets, D forms with d. Residues, ends and D or L forms follow the SMILES beside them. Dip = N[C@H](C(=O)O)C(c1ccccc1)c1ccccc1
# What was measured:
# LLC-PK1 cells = experiment: In vitro cytotoxicity (MTS) in LLC-PK1 cells; type: cell-based, pig; conditions: LLC-PK1, 10 µM, 24 h and 72 h incubation
# Procedure: SK-OV-3, CCRF-CEM, HEK-293, MDA-MB-468, LLC-PK1, and MES-SA were used to determine the cytotoxicity of the synthesized linear and cyclic peptides. About 5000, 10,000, and 50,000 cells were seeded for SK-OV-3, HEK-293, and CCRF-CEM cells, respectively, in 0.1 mL of medium per well of 96-well plates. […]
# Adhesive cells were detached with 0.05% trypsin/EDTA after 15 min. […] The cell viability was measured by utilizing Multi-Mode Microplate Reader (SpectraMax M5 model, Molecular Devices, San Jose, CA, USA) after adding 20 µL of the MTS reagent to each well and incubating for 3 additional hours. […] The percentage of cell viability was calculated using the following equation:(1) =(Average OD values of samples treated with the compound /Average OD values of no treatment samples )∗100
# [1] = Transmission electron microscopy, self-assembly; type: physicochemical; conditions: TEM, 30 μM, dried on grid overnight, not stained
# Procedure: Transmission electron microscopy (TEM) was done on a LVEM 5D Microscope model (Delong instruments, Brno, Czech Republic) samples were prepared on an Ultrathin Carbon Film on Lacey Carbon Support Film with 400 mesh copper from Ted Pella. Dilute solutions of 30 μM concentration were used for the TEM analysis. Samples were dropped on grids, evaporated overnight, and not stained. They were incubated for approximately 2 h after thawing from a freezer (0 to −18 °C). Samples were air-dried, and images were obtained with a LVEM5 (Delong Instruments, US) 5 keV field emission gun. The camera was Zyla 5.5 Scientific CMOS with specifications of exposure 50–200 [ms], pixel readout 200 MHz—lowest noise, dynamic range 12-bit (low noise), and summing 1.
# CCRF-CEM cells = experiment: Cellular uptake by flow cytometry in CCRF-CEM cells; type: cell-based, human; conditions: 3 h
# Procedure: (§1) CCRF-CEM and SK-OV-3 cells were used to measure the cellular uptake of a fluorescent-labeled phosphopeptide (F’-GpYEEI) (2 µM), stavudine (F’-d4T) (2 µM) lamivudine (F’-3TC) (1–2 µM), emtricitabine (F’-FTC) (2 µM), and siRNA (F’-siRNA) (36 nM) with the least toxic concentration for each linear and the cyclic peptide (10 µM). The uptake was measured in the presence and absence of the peptides. The SK-OV-3 (0.5 million) and CCRF-CEM (a million) cells were incubated in each well of 6-well plates with the synthesized peptide and the fluorescent-labeled compound in one well. Another well contained the fluorescent-labeled compound alone for 3 h in an incubator (37 °C in a humidified atmosphere of 5% CO2). […] For more details, please refer back to the cytotoxicity method described above.
# The cells were transferred to FACS analysis tubes after being washed with phosphate-buffered saline (PBS). The cells were centrifuged 2500 RPM for 5 min with Fisher Scientific accuSpin Micro 17 to precipitate the cells and to allow replacing the supernatant. The cells were then vortexed with Nerl Blood Bank Saline pH 7–7.2 (flow cytometry buffer) and transferred to the tube through a sterile cell strainer 40 µm Nylon Mesh. Finally, the cells were resuspended in flow cytometry buffer and analyzed by flow cytometry (FACSVerse model, Becton Dickinson, San Jose, CA, USA) using the FITC channel and the BD FACSuite software. The device was washed before each experiment, and the flow rate was set at medium. Finally, the cells were analyzed by using FITC channel […] argon laser for the excitation and the emitted 519 nm fluorescence for detection. The data presented was based on the FITC-A mean intensity signal for 10,000 cells collected. All assays were performed in triplicates. Results were evaluated to determine whether the peptides are facilitating the fluorescence compound to cross the membrane.
# To determine the mechanism of the cellular uptake, F’-[K(DipR)5] or the physical mixture of the F’-GpYEEI and [DipR]5 were used to measure the fluorescence in the treated CCRF-CEM cells. F’-[K(DipR)5] (5 or 10 µM) or the physical mixture of the F’-GpYEEI (2 µM) and [DipR]5 (5 or 10 µM) were incubated with CCRF-CEM cells over 3 h. After each incubation, the medium containing the peptide and cells was removed. The same protocol as the cellular uptake study was used to prepare the cells as described above. Finally, the cells were resuspended in the buffer and analyzed by flow cytometry using the FITC channel and the BD FACSuite software. The data presented was based on the percentage of FITC-A mean intensity signal for 10,000 cells collected. All assays were performed in triplicates.
# SK-OV-3 cells = experiment: Cellular uptake by flow cytometry in SK-OV-3 cells; type: cell-based, human; conditions: SK-OV-3, F’-FTC 2 µM, peptide 10 µM, 3 h
# Procedure: as §1
# The cells were transferred to FACS analysis tubes after being washed with phosphate-buffered saline (PBS). […] Finally, the cells were resuspended in flow cytometry buffer and analyzed by flow cytometry (FACSVerse model, Becton Dickinson, San Jose, CA, USA) using the FITC channel and the BD FACSuite software. […] Finally, the cells were analyzed by using FITC channel […] argon laser for the excitation and the emitted 519 nm fluorescence for detection. […] Results were evaluated to determine whether the peptides are facilitating the fluorescence compound to cross the membrane.
structure (smiles),measurement,setting,value
N=C(N)NCCC[C@@H]1NC(=O)[C@H](C(c2ccccc2)c2ccccc2)NC(=O)[C@H](CCCNC(=N)N)NC(=O)[C@H](C(c2ccccc2)c2ccccc2)NC(=O)[C@H](CCCNC(=N)N)NC(=O)[C@H](C(c2ccccc2)c2ccccc2)NC(=O)[C@H](CCCNC(=N)N)NC(=O)[C@H](C(c2ccccc2)c2ccccc2)NC(=O)[C@H](CCCNC(=N)N)NC(=O)[C@H](C(c2ccccc2)c2ccccc2)NC1=O [[DipR]5] (cyclo([Dip]R[Dip]R[Dip]R[Dip]R[Dip]R)),cytotoxicity,LLC-PK1 cells,no significant cytotoxicity
same,morphology of self-assembled structures,[1],aggregation
same,size of self-assembled structures,[1],≤ 30 nm
same,increase of cellular uptake of F′-3TC vs cargo alone,"CCRF-CEM cells; F’-3TC 2 µM, peptide 10 µM, flow cytometry, n = 3",14 fold
same,increase of cellular uptake of F’-FTC vs cargo alone,"CCRF-CEM cells; F’-FTC 2 µM, peptide 10 µM, flow cytometry, n = 3",13 fold
same,increase of cellular uptake of F’-GpYEEI,"CCRF-CEM cells; F’-GpYEEI 2 µM, peptide 5 µM, n = 3",43 fold
same,cellular uptake of F’-GpYEEI relative to [R5K]W7A,"CCRF-CEM cells; side-by-side comparison, F’-GpYEEI 2 µM, peptides 10 µM",5 fold
same,increase of cellular uptake of F’-FTC,SK-OV-3 cells,6 fold
